This note sets out measurements from ChEMBL document CHEMBL5537206 (J Med Chem, 2024).

What all share (format): functional, cell-based
Assay [1] concerns Osimertinib-resistant NCI-H1975 cell. The assay can be described thus: Antiproliferative activity against human Osimertinib-resistant NCI-H1975 cell (AZDR) incubated for 72 hrs by MTT assay. On the technique in general: Tetrazolium assays rely on reduction of a dye to a coloured formazan, in cell work by metabolically active cells.
For the next assay, the system named is NCI-H1975. The assay can be described thus: Antiproliferative activity against human NCI-H1975 cells incubated for 72 hrs by MTT assay. The following applies: NCI-H1975, 72 h.
The subject of the next assay is MCF7. The assay can be described thus: Antiproliferative activity against human MCF7 cells incubated for 72 hrs by MTT assay. The note with it: MCF7, 72 h.

As usually defined, the IC50 is the concentration that gives 50% inhibition. Low values mean inhibition by little substance, high ones a need for much substance.

Bounds are passed on as bounds.

With `C=CC(=O)Nc1cccc(Nc2nc(Nc3cnn(C)c3)nc3cc(Cl)ccc23)c1`, the figures for the IC50 (in assay [1]; in the assay on NCI-H1975; in the assay with MCF7) were 13.8 µM, 15 µM and 2.95 µM, respectively.
On to `C=CC(=O)Nc1cccc(Nc2nc(Nc3cccc(C)c3)nc3ccc(Cl)cc23)c1`, for which the IC50 in assay [1] was 4.77 µM; in the assay with NCI-H1975, 2.68 µM; in the assay on MCF7 it was 7.73 µM.
Consider `C=CC(=O)Nc1cccc(Nc2nc(Nc3cnn(C)c3)nc3cc(OC)ccc23)c1`, for which the IC50 in assay [1] amounted to 2.5 µM; in the assay on NCI-H1975, 1.38 µM; in the assay with MCF7 it was 1.34 µM.
In the case of `C=CC(=O)Nc1cccc(Nc2nc(NCCn3cccn3)nc3ccc(Cl)cc23)c1`, the figures for the half-maximal inhibitory concentration (IC50) (in assay [1]; in the assay on NCI-H1975; with MCF7) were 22.8 µM, 10.1 µM and 13.7 µM, respectively.
As for `C=CC(=O)Nc1cccc(Nc2nc(Nc3cnn(C)c3)nc3c(Cl)cccc23)c1`, the IC50 is more than 20 µM in assay [1], 2.21 µM with NCI-H1975 and 1.72 µM in the assay with MCF7.
